For orientation: IC50 means the point on the concentration scale where inhibition reaches its midpoint. Usually inhibition stands for the change of the read-out against control, counted positive when it falls.

Assay [1] addresses Tyrosine-protein kinase ABL1 (Homo sapiens, UniProt P00519). As to the kind of experiment: Inhibition of ABL expressed in baculovirus system by ELISA. (In an ELISA, binding on a coated surface is turned into a signal by an enzyme label.)
The target of assay [2] is T1, Vascular endothelial growth factor receptor 2 (Homo sapiens, UniProt P35968). In words: Inhibition of KDR expressed in baculovirus system at 4 ug/ml by ELISA.
T1 sequence (P35968 whole entry): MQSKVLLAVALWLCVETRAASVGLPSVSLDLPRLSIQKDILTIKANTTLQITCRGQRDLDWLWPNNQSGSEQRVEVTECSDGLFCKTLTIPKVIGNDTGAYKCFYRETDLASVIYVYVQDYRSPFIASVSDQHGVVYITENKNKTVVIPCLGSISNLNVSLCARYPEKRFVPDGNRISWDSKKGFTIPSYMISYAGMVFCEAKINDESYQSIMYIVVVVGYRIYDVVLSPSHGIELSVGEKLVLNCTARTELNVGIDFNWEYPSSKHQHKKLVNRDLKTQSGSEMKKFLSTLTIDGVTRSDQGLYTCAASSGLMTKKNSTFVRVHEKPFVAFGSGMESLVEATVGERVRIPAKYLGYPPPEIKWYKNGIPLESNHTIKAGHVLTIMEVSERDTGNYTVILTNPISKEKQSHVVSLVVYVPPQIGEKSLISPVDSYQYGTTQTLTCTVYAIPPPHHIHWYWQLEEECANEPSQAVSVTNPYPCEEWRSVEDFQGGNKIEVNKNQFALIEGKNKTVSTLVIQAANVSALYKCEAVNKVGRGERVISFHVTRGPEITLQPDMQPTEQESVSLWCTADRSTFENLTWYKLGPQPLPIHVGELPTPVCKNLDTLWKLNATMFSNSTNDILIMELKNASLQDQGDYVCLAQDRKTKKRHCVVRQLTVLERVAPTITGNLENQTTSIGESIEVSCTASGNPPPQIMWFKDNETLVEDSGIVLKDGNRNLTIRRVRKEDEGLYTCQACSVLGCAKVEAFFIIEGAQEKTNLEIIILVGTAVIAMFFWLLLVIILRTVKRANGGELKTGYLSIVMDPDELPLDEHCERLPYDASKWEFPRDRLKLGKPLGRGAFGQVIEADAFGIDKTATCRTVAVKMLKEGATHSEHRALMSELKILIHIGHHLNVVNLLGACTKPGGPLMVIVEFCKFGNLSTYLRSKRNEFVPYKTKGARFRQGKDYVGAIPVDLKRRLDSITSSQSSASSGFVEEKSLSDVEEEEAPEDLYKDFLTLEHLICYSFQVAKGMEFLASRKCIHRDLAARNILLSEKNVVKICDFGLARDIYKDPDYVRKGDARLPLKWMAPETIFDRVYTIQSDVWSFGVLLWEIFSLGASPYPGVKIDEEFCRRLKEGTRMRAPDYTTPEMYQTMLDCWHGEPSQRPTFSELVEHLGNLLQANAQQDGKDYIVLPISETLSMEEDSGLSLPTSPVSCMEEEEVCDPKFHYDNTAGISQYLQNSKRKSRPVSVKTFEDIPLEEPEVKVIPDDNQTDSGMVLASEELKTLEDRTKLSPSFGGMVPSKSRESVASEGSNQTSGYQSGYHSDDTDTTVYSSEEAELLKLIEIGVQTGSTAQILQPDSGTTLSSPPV
Assay [3] deals with T1, Vascular endothelial growth factor receptor 2. In words: Inhibition of KDR expressed in baculovirus system by ELISA.

SMILES strings stand for the structures.

Chain of Tyrosine-protein kinase ABL1 (P00519 whole entry): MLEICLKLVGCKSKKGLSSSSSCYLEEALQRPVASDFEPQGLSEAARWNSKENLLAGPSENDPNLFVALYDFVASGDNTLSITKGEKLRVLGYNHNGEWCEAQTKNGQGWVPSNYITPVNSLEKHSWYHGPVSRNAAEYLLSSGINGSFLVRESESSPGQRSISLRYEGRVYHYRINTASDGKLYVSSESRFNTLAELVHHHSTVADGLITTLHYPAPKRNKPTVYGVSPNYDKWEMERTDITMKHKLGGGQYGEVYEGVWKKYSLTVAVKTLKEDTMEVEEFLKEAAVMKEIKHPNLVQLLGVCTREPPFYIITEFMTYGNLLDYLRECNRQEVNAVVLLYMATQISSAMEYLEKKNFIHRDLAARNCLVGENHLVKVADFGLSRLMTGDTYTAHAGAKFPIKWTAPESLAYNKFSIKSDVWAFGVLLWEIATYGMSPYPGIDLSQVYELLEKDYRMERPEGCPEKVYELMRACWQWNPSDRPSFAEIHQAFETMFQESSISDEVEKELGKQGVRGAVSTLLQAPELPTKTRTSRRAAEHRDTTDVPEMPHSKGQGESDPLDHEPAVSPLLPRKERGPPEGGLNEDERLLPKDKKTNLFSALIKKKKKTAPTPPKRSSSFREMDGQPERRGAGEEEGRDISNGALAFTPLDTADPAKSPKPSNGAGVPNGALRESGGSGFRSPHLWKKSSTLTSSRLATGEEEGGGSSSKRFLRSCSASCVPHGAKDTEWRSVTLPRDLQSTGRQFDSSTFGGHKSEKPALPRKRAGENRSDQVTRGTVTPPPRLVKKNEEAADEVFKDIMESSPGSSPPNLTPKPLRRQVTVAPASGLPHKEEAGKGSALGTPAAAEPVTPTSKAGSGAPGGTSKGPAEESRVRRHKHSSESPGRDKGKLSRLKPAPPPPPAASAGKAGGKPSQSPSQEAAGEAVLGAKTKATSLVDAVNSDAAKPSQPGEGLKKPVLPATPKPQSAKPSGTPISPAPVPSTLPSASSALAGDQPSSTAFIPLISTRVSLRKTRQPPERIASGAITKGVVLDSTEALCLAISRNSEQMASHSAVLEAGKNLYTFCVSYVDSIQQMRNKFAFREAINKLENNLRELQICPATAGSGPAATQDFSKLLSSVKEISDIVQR

Compound `O=C(/C=C/c1ccc(/C=C2\Oc3ccccc3NC2=O)s1)Nc1ccc(N2CCOCC2)cc1` had an IC50 in assay [1] of 290 nM.
As to `O=C1Nc2ccccc2O/C1=C\c1cc(/C=C/C(=O)N2CCCC2)cs1`, the IC50 in assay [1] was above 1090 nM.
For the compound `CN(C)CCNC(=O)/C=C/c1cccc(/C=C2\Oc3ccccc3NC2=O)c1`, the inhibition in assay [2] was determined as 70.8%.
In turn, `O=C(/C=C/c1cccc(/C=C2\Oc3ccccc3NC2=O)c1)NCc1ccccn1` registered an IC50 in assay [1] above 1010 nM.
As for `CN1C(=O)/C(=C/c2cccc(/C=C/C(=O)Nc3ccc(N4CCOCC4)cc3)c2)Oc2ccccc21`, the inhibition in assay [2] was 79.9%.
For `CN1C(=O)/C(=C/c2ccc(/C=C/C(=O)NCc3cccnc3)s2)Oc2ccccc21`, in assay [2], the inhibition is 76.7%. The figures for the IC50 in assay [3] and in assay [1] were 1480 nM and 1900 nM, respectively.
In the case of `O=C1Nc2ccccc2O/C1=C\c1ccc(/C=C/C(=O)N2CCN(CCO)CC2)o1`, in assay [2], the inhibition worked out at 76.7%.
The same measure, in the same setting: to `CN1C(=O)/C(=C/c2ccc(/C=C/C(=O)N3CCN(CCO)CC3)s2)Oc2ccccc21` belongs 88.3%.
For the compound `CN1C(=O)/C(=C/c2ccc(/C=C/C(=O)N3CCCC3)s2)Oc2ccccc21`, the inhibition in assay [2] is 79.2%.
In assay [2], `CN(C)CCNC(=O)/C=C/c1ccc(/C=C2\Oc3ccccc3N(C)C2=O)s1` came in with an inhibition of 83.9%. In assay [1], this compound had a half-inhibitory concentration (IC50) of 820 nM.
In turn, `O=C(/C=C/c1ccc(/C=C2\Oc3ccccc3NC2=O)s1)NCc1ccccn1` came in with a 50% inhibitory concentration (IC50) in assay [1] above 991 nM.
As to `O=C1Nc2ccccc2O/C1=C\c1ccc(/C=C/C(=O)N2CCCC2)o1`, in assay [1], the IC50 is above 1140 nM.
With `CN1C(=O)/C(=C/c2ccc(/C=C/C(=O)NCc3ccncc3)s2)Oc2ccccc21`, in assay [2], the inhibition turned out to be 77.1%. The half-maximal inhibitory concentration (IC50) in assay [1] amounted to 1760 nM.
In the case of `CN(C)CCNC(=O)/C=C/c1csc(/C=C2\Oc3ccccc3NC2=O)c1`, the IC50 in assay [1] was above 1040 nM.

Values taken from ChEMBL document CHEMBL1140887, “Synthesis of novel 1,4-benzoxazin-3-one derivatives as inhibitors against tyrosine kinases” (Bioorg Med Chem, 2009).
